Test system: NHBE cells
Test: Biolog metabolic array: substrate use by NHBE cells with or without CA09 infection
Assay type: cell-based, human
Settings: for Substrate use, 590 nm absorbance normalized to zero hour, 0 hr: Biolog PMM2, 0 hr; for Substrate use, 590 nm absorbance normalized to zero hour, 1 hr: Biolog PMM2, 1 hr; for Substrate use, 590 nm absorbance normalized to zero hour, 5 hr: Biolog PMM2, 5 hr; for Substrate use, 590 nm absorbance normalized to zero hour, 7 hr: Biolog PMM2, 7 hr
[1] = Control (uninfected) NHBE cells
[2] = Virus (CA09-infected, MOI 1) NHBE cells
[3] = Virus: CA09-infected NHBE cells, MOI 1, Biolog PMM2
[4] = Virus (CA09, MOI 1) infected NHBE cells
[5] = Virus (CA09-infected NHBE cells, MOI 1)

SMILES: CO[C@H]1O[C@H](CO)[C@H](O)[C@H](O)[C@H]1O [a-Methyl-D-Galactoside]
- 590 nm absorbance normalized to zero hour (substrate use), 0 hr [1]: 1.00
- 590 nm absorbance normalized to zero hour (substrate use), 1 hr [1]: 1.13
- 590 nm absorbance normalized to zero hour (substrate use), 2 hr [1]: 0.68
- 590 nm absorbance normalized to zero hour (substrate use), 3 hr [1]: 0.80
- 590 nm absorbance normalized to zero hour (substrate use), 4 hr [1]: 0.84
- 590 nm absorbance normalized to zero hour (substrate use), 6 hr [1]: 1.20
- 590 nm absorbance normalized to zero hour (substrate use), 8 hr [1]: 1.15
- 590 nm absorbance normalized to zero hour (substrate use), 9 hr [1]: 1.29
- 590 nm absorbance normalized to zero hour (substrate use), 10 hr [1]: 1.42
- 590 nm absorbance normalized to zero hour (substrate use), 11 hr [1]: 1.06
- Substrate use, 590 nm absorbance normalized to zero hour, 0 hr [1]: 1.00
- Substrate use, 590 nm absorbance normalized to zero hour, 1 hr [1]: 1.13
- Substrate use, 590 nm absorbance normalized to zero hour, 5 hr [1]: 1.01
- Substrate use, 590 nm absorbance normalized to zero hour, 7 hr [1]: 1.15
- 590 nm absorbance normalized to zero hour (substrate use), 0 hr [2]: 1.00
- 590 nm absorbance normalized to zero hour (substrate use), 1 hr [2]: 2.91
- 590 nm absorbance normalized to zero hour (substrate use), 2 hr [2]: 1.88
- 590 nm absorbance normalized to zero hour (substrate use), 3 hr [2]: 1.16
- 590 nm absorbance normalized to zero hour (substrate use), 4 hr [2]: 1.24
- 590 nm absorbance normalized to zero hour (substrate use), 5 hr [2]: 1.43
- 590 nm absorbance normalized to zero hour (substrate use), 6 hr [2]: 1.51
- 590 nm absorbance normalized to zero hour (substrate use), 7 hr [2]: 1.59
- 590 nm absorbance normalized to zero hour (substrate use), 8 hr [2]: 1.67
- 590 nm absorbance normalized to zero hour (substrate use), 9 hr [2]: 1.83
- 590 nm absorbance normalized to zero hour (substrate use), 10 hr [2]: 1.89
- 590 nm absorbance normalized to zero hour (substrate use), 11 hr [2]: 2.05
- 590 nm absorbance normalized to zero hour (substrate use), 0 hr [3]: 1.00
- 590 nm absorbance normalized to zero hour (substrate use), 1 hr [3]: 2.91
- 590 nm absorbance normalized to zero hour (substrate use), 2 hr [3]: 1.88
- 590 nm absorbance normalized to zero hour (substrate use), 3 hr [3]: 1.16
- 590 nm absorbance normalized to zero hour (substrate use), 4 hr [3]: 1.24
- 590 nm absorbance normalized to zero hour (substrate use), 5 hr [3]: 1.43
- 590 nm absorbance normalized to zero hour (substrate use), 6 hr [3]: 1.51
- 590 nm absorbance normalized to zero hour (substrate use), 7 hr [3]: 1.59
- 590 nm absorbance normalized to zero hour (substrate use), 8 hr [3]: 1.67
- 590 nm absorbance normalized to zero hour (substrate use), 9 hr [3]: 1.83
- 590 nm absorbance normalized to zero hour (substrate use), 10 hr [3]: 1.89
- 590 nm absorbance normalized to zero hour (substrate use), 11 hr [3]: 2.05

SMILES: CO[C@H]1O[C@H](CO)[C@@H](O)[C@H](O)[C@H]1O [a-Methyl-D-Glucoside]
- 590 nm absorbance normalized to zero hour (substrate use), 0 hr [1]: 1.00
- 590 nm absorbance normalized to zero hour (substrate use), 1 hr [1]: 1.18
- 590 nm absorbance normalized to zero hour (substrate use), 2 hr [1]: 1.07
- 590 nm absorbance normalized to zero hour (substrate use), 3 hr [1]: 1.02
- 590 nm absorbance normalized to zero hour (substrate use), 4 hr [1]: 0.58
- 590 nm absorbance normalized to zero hour (substrate use), 6 hr [1]: 0.90
- 590 nm absorbance normalized to zero hour (substrate use), 8 hr [1]: 0.74
- 590 nm absorbance normalized to zero hour (substrate use), 9 hr [1]: 0.79
- 590 nm absorbance normalized to zero hour (substrate use), 10 hr [1]: 0.83
- 590 nm absorbance normalized to zero hour (substrate use), 11 hr [1]: 0.93
- Substrate use, 590 nm absorbance normalized to zero hour, 0 hr [1]: 1.00
- Substrate use, 590 nm absorbance normalized to zero hour, 1 hr [1]: 1.18
- Substrate use, 590 nm absorbance normalized to zero hour, 5 hr [1]: 0.76
- Substrate use, 590 nm absorbance normalized to zero hour, 7 hr [1]: 0.68
- Substrate use, 590 nm absorbance normalized to zero hour, 0 hr [4]: 1.00
- Substrate use, 590 nm absorbance normalized to zero hour, 1 hr [4]: 1.29
- Substrate use, 590 nm absorbance normalized to zero hour, 5 hr [4]: 2.31
- Substrate use, 590 nm absorbance normalized to zero hour, 7 hr [4]: 2.67
- 590 nm absorbance normalized to zero hour (substrate use), 0 hr [2]: 1.00
- 590 nm absorbance normalized to zero hour (substrate use), 1 hr [2]: 1.29
- 590 nm absorbance normalized to zero hour (substrate use), 2 hr [2]: 1.66
- 590 nm absorbance normalized to zero hour (substrate use), 3 hr [2]: 1.87
- 590 nm absorbance normalized to zero hour (substrate use), 4 hr [2]: 1.99
- 590 nm absorbance normalized to zero hour (substrate use), 6 hr [2]: 2.50
- 590 nm absorbance normalized to zero hour (substrate use), 8 hr [2]: 2.77
- 590 nm absorbance normalized to zero hour (substrate use), 9 hr [2]: 3.14
- 590 nm absorbance normalized to zero hour (substrate use), 10 hr [2]: 3.10
- 590 nm absorbance normalized to zero hour (substrate use), 11 hr [2]: 3.31

SMILES: CO[C@H]1O[C@H](CO)[C@@H](O)[C@H](O)[C@@H]1O [a-Methyl-D-Mannoside]
- 590 nm absorbance normalized to zero hour (substrate use), 0 hr [1]: 1.00
- 590 nm absorbance normalized to zero hour (substrate use), 1 hr [1]: 1.26
- 590 nm absorbance normalized to zero hour (substrate use), 2 hr [1]: 1.58
- 590 nm absorbance normalized to zero hour (substrate use), 3 hr [1]: 1.74
- 590 nm absorbance normalized to zero hour (substrate use), 4 hr [1]: 1.89
- 590 nm absorbance normalized to zero hour (substrate use), 6 hr [1]: 2.77
- 590 nm absorbance normalized to zero hour (substrate use), 8 hr [1]: 2.13
- 590 nm absorbance normalized to zero hour (substrate use), 9 hr [1]: 2.16
- 590 nm absorbance normalized to zero hour (substrate use), 10 hr [1]: 2.95
- 590 nm absorbance normalized to zero hour (substrate use), 11 hr [1]: 2.58
- Substrate use, 590 nm absorbance normalized to zero hour, 0 hr [1]: 1.00
- Substrate use, 590 nm absorbance normalized to zero hour, 1 hr [1]: 1.26
- Substrate use, 590 nm absorbance normalized to zero hour, 5 hr [1]: 2.33
- Substrate use, 590 nm absorbance normalized to zero hour, 7 hr [1]: 2.46
- 590 nm absorbance normalized to zero hour (substrate use), 0 hr [5]: 1.00
- 590 nm absorbance normalized to zero hour (substrate use), 1 hr [5]: 0.38
- 590 nm absorbance normalized to zero hour (substrate use), 2 hr [5]: 0.54
- 590 nm absorbance normalized to zero hour (substrate use), 3 hr [5]: 0.64
- 590 nm absorbance normalized to zero hour (substrate use), 4 hr [5]: 0.69
- 590 nm absorbance normalized to zero hour (substrate use), 5 hr [5]: 0.83
- 590 nm absorbance normalized to zero hour (substrate use), 6 hr [5]: 0.89
- 590 nm absorbance normalized to zero hour (substrate use), 7 hr [5]: 0.93
- 590 nm absorbance normalized to zero hour (substrate use), 8 hr [5]: 0.99
- 590 nm absorbance normalized to zero hour (substrate use), 9 hr [5]: 1.10
- 590 nm absorbance normalized to zero hour (substrate use), 10 hr [5]: 1.14
- 590 nm absorbance normalized to zero hour (substrate use), 11 hr [5]: 1.24
- 590 nm absorbance normalized to zero hour (substrate use), 0 hr [3]: 1.00
- 590 nm absorbance normalized to zero hour (substrate use), 1 hr [3]: 0.38
- 590 nm absorbance normalized to zero hour (substrate use), 2 hr [3]: 0.54
- 590 nm absorbance normalized to zero hour (substrate use), 3 hr [3]: 0.64
- 590 nm absorbance normalized to zero hour (substrate use), 4 hr [3]: 0.69
- 590 nm absorbance normalized to zero hour (substrate use), 5 hr [3]: 0.83
- 590 nm absorbance normalized to zero hour (substrate use), 6 hr [3]: 0.89
- 590 nm absorbance normalized to zero hour (substrate use), 7 hr [3]: 0.93
- 590 nm absorbance normalized to zero hour (substrate use), 8 hr [3]: 0.99
- 590 nm absorbance normalized to zero hour (substrate use), 9 hr [3]: 1.10
- 590 nm absorbance normalized to zero hour (substrate use), 10 hr [3]: 1.14
- 590 nm absorbance normalized to zero hour (substrate use), 11 hr [3]: 1.24

Source: patent US11083725B2 (priority 2014, dated 2021)
